Data taken from ChEMBL document CHEMBL5724558, “Image-based profiling of drug vulnerabilities in CRC organoids” (2024).
Several values for one entry are separate records, joined by “and”; a condition that tells them apart may be missing. Equal values may be shown once.

How the values were obtained:
Assay type in all cases: functional, Homo sapiens
Design in all cases: dose or concentration left out as unconfirmed
Colon cancer organoid [1] = experiment: (§1) Image-based profiling of donated chemical probes and chemogenomic kinase set in O06 CRC organoid. Image analysis is performed on the sum area metric, and the data were normalized to the DMSO control. After imaging the organoid viability is measured using the OneGloEX Luciferase Assay System. The normalized viability data and sum area are reported.
Colon cancer organoid [2] = experiment: as §1, with “O09” for “O06”
Colon cancer organoid [3] = experiment: as §1, with “O21” for “O06”

| SMILES | Cell Viability (Colon cancer organoid [1]; Replication number 1) | Cell Viability (Colon cancer organoid [1]; Replication number 2) | Cell Viability (Colon cancer organoid [2]; Replication number 1) | Cell Viability (Colon cancer organoid [2]; Replication number 2) | Cell Viability (Colon cancer organoid [3]; Replication number 1) | Cell Viability (Colon cancer organoid [3]; Replication number 2) |
| --- | --- | --- | --- | --- | --- | --- |
| O=C(O)CNC(=O)c1c(O)c2ccccc2n(Cc2ccccc2)c1=O | 94.9232% and 53.396% | 101.3% and 76.2347% | 105.314% and 91.1128% | 142.9% and 106.905% | 116.47% and 93.4683% | 109.318% and 89.1408% |
| COc1ccccc1C(=O)Nc1cc2c(cc1N1CCCC1)n(C)c(=O)n2C | 152.076% and 120.081% | 178.087% and 127.616% | 131.649% and 89.49% | 142.608% and 94.0767% | 97.0271% and 91.1169% | 104.009% and 97.7327% |
| Cc1cc(=O)n(C)c2cc(N3C(=O)CC[C@H](NS(=O)(=O)CC(C)C)[C@H]3c3ccc(Cl)cc3)ccc12 | 144.152% and 97.8523% | 176.827% and 107.063% | 117.261% and 101.082% | 140.716% and 110.041% | 117.189% and 110.516% | 129.923% and 112.232% |
| CC(=O)c1cc(-c2cc(C(=O)NC3CC3)ccc2C)c2ncccn12 | 115.093% and 116.94% | 131.559% and 119.251% | 163.828% and 97.8362% | 113.773% and 107.19% | 100.074% and 118.158% | 94.4985% and 97.1957% |
| Nc1ncnc2c1ccn2[C@@H]1O[C@H]([C@H](O)c2ccccc2)[C@@H](O)[C@H]1O | 27.0632% and 78.2819% | – | 67.0274% and 58.6553% | 77.7398% and 60.4371% | 74.1764% and 78.772% | 70.798% and 78.401% |
| CN(C)CCCOc1ccc(-c2cc(NCCCn3cccn3)nc(S(C)(=O)=O)n2)cc1 | 164.335% and 134.819% | 201.31% and 140.998% | 107.413% and 76.7388% | 121.884% and 89.5154% | 93.735% and 87.002% | 96.544% and 91.8258% |
| COc1cc(N(C)c2ccnc3ccc(C(F)(F)F)cc23)cc(OC)c1OC | 100.25% and 97.181% | 103.599% and 93.0279% | 149.162% and 94.0382% | 152.627% and 99.9775% | 98.7422% and 93.5085% | 96.4741% and 84.441% |
| CNCCN1CCC(c2cc(CN(C)C(=O)c3cccc(Oc4ccccc4)c3)ccn2)CC1 | 160.666% and 144% | 179.321% and 118.056% | 65.766% and 84.3895% | 110.837% and 98.923% | 118.858% and 106.989% | 108.266% and 112.768% |
| COc1c(C)cc(NC(=O)c2nn(Cc3ccc(F)cc3)c3c2CN(C(=O)c2ccc[nH]2)C[C@]3(C)C(N)=O)cc1C | 208.8% and 152.94% | 183.011% and 147.451% | 100.506% and 104.328% | 74.723% and 85.5242% | 89.287% and 106.401% | 91.8219% and 96.6587% |
| CCCCN(Cc1ccccc1)C(=O)c1ccc(S(=O)(=O)Nc2ccccc2)cc1 | 128.543% and 118.777% | 114.906% and 147.848% | 116.29% and 115.073% | 99.5038% and 96.018% | 85.4191% and 92.3751% | 113.731% and 107.676% |
| COc1cc(OC)cc(-c2noc(N3CCN(C)C4(CCN(c5ccnc(C)c5)CC4)C3)n2)c1 | 99.0993% and 95.9195% | 203.392% and 146.256% | 147.791% and 90.4173% | 237.296% and 126.576% | 102.094% and 140.496% | 79.0091% and 95.0477% |
